Measured values published in article PMC12524617, “Recombinant Production and Characterization of a Novel α-L-Fucosidase from Bifidobacterium castoris” (International Journal of Molecular Sciences, 2025).

Target: T1, commercial T. maritima α-L-fucosidase (Thermotoga maritima, UniProt Q9WYE2)
T1 construct: gene TM_0306; commercial enzyme from Megazyme
T1 sequence (Q9WYE2 1-449): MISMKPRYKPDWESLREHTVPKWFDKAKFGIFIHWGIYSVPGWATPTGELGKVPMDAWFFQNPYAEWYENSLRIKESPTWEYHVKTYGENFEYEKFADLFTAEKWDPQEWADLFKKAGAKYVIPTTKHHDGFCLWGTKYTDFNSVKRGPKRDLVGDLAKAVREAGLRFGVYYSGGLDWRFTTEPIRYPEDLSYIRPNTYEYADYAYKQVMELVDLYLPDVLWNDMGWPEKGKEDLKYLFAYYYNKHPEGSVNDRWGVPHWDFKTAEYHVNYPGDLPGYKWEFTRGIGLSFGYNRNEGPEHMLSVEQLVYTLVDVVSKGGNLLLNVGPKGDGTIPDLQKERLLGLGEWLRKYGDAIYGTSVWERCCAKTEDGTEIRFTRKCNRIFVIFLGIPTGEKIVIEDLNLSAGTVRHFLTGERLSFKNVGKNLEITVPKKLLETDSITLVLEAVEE
Assay: p-nitrophenolate release, absorbance at […] nm
Format: biochemical
Settings: positive control enzyme, 1 μg, same conditions, pH 3.0-8.0, 24-42 °C; activity only in figure

C[C@@H]1O[C@@H](Oc2ccc([N+](=O)[O-])cc2)[C@@H](O)[C@H](O)[C@@H]1O [pNP-Fuc, 4-Nitrophenyl-α-L-fucopyranoside]
p-nitrophenolate release, absorbance at 405 nm: -derived α-L-fucosidase was used as a positive control under the same conditions
